One may read the Km as the substrate concentration at which the rate is half of its maximum. Broadly, the IC50 is the point on the concentration scale where inhibition reaches its midpoint.

Results on 1 compound are retold here after US20240316079A1, “USE OF AKR1C3-ACTIVATED COMPOUND” (OBI PHARMA, INC., priority 2021, published 2024).

Where only a bound is given, the exact number is not on record here.

The target in series [1] is T1, recombinant human AKR1C3 (Homo sapiens, UniProt P42330).
T1 construct: purchased Abcam (Cambridge, MA)
T1 sequence (P42330 1-323): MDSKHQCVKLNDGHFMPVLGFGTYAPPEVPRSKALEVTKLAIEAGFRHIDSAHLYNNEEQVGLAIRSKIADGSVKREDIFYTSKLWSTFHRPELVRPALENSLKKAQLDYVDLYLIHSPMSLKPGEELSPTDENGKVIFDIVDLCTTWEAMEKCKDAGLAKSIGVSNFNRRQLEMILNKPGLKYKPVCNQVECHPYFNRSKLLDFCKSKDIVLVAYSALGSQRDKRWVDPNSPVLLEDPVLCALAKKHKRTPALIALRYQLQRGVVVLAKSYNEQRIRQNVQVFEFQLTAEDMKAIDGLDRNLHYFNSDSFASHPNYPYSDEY
As to the kind of experiment: AKR1C3-dependent activation of 3424 (2660 production, LC-MS/MS). It is filed as biochemical. The following applies: incubation with AKR1C3, n = 3, mean ± SD. On the procedure:
The reaction was incubated at 25° C. and terminated at various time points by adding acetonitrile and methanol (at a ratio of 9 to 1) and subjected for LC-MS/MS analysis. For enzyme kinetic analysis, the activity was determined with a SpectraMax M2^e spectrophotometer (Molecular Devices, LLC, San Jose, CA) by measuring the decrease in absorbance of the NADPH at 340 nm (E=6270 M^−1 cm^−1). After the initiation of the reaction by addition of substrates, the reactions were monitored at 30 s intervals at 25° C. The non-substrate reaction rate was also monitored as background and its slope was used to determine the initial velocity of the reaction. The kinetic data reported were the average of triplicate measurements. For AKR1C3-mediated 3424 metabolism, LC/MS/MS was performed using a Sciex API-4000 Qtrap (ABSciex, LLC, Framingham, MA) mass spectrometer coupled to an Agilent 1200 HPLC system (Agilent Technologies, Santa Clara, CA). […] The column oven temperature was 40° C. and the sample injection volume was 2 μL. The mass spectra were obtained in positive MRM mode. In positive ion mode, the ion spray voltage was set at 4500 V, declustering potential at 80 V, collision energy at 20 V, source temperature at 350° C., curtain gas at 10 psi and the source gas 1 and 2 both at 60 psi. […] For 2660 analysis, normal phase liquid chromatographic separation was performed with Waters Atlantis HILIC Silica column (2.1 mm×100 mm, 3 μm, Waters Corp., Milford, MA) in a total run time of 9 min using a flow rate of 0.3 mL/min. The mobile phase A consisted of 1 mM ammonium formate in water and mobile phase B using ACN. […] The column oven temperature was 40° C. and the sample injection volume was 2 μL. The mass spectra were obtained in negative MRM mode. In negative ion mode, the ion spray voltage was set at −4500 V, declustering potential at −60 V, collision energy at −30 V, source temperature at 350° C., curtain gas at 10 psi and the source gas 1 and 2 both at 60 psi. […] The peak area ratio for each MRM transition (peak area of analyte/peak area of analyte-IS) of calibration standards and samples were used for quantitative analysis using Analyst 1.6 software (ABSciex, Framingham, MA).

In series [2] the target is T1, recombinant human AKR1C3. In words: Kinetic analysis of AKR1C3 towards various substrates (NADPH absorbance 340 nm). It is filed as biochemical. Particulars: substrate of AKR1C3, 25° C., triplicate. The procedure:
The reaction was incubated at 25° C. and terminated at various time points by adding acetonitrile and methanol (at a ratio of 9 to 1) and subjected for LC-MS/MS analysis. For enzyme kinetic analysis, the activity was determined with a SpectraMax M2^e spectrophotometer (Molecular Devices, LLC, San Jose, CA) by measuring the decrease in absorbance of the NADPH at 340 nm (E=6270 M^−1 cm^−1). After the initiation of the reaction by addition of substrates, the reactions were monitored at 30 s intervals at 25° C. The non-substrate reaction rate was also monitored as background and its slope was used to determine the initial velocity of the reaction. The kinetic data reported were the average of triplicate measurements.

Series [3] relates to HLE. In words: In vitro proliferation assay, liver cancer cell line HLE. It is filed as cell-based. The following applies: Homo sapiens, 96 hours of drug exposure, AKR1C3 protein Medium, read-out: 3424 IC50. The procedure: (§1) IC50 was calculated as described above.
Series [4] relates to HuCCT1. In words: In vitro proliferation assay, liver cancer cell line HuCCT1. It is filed as cell-based. The following applies: Homo sapiens, HuCCT-1, 96 hours of drug exposure, AKR1C3 protein Low, read-out: 3424 IC50. On the procedure:
as §1

The subject of series [5] is HLF. In words: In vitro proliferation assay, liver cancer cell line HLF. It is filed as cell-based. The following applies: Homo sapiens, 96 hours of drug exposure, AKR1C3 protein Low, read-out: 3424 IC50. The procedure: as §1
Series [6] deals with SK-HEP-1. As to the kind of experiment: In vitro proliferation assay, liver cancer cell line SK-HEP-1. Format: cell-based. Particulars: Homo sapiens, SK-HEP1, 96 hours of drug exposure, AKR1C3 protein Low, read-out: 3424 IC50. The procedure:
as §1

Series [7] has as its system NCI-H1792. In words: In vitro proliferation assay, NSCLC cell line NCI-H1792. Format: cell-based. Particulars: Homo sapiens, 72 hours of drug exposure, read-out: 3424 IC50. On the procedure: as §1
For series [8], the system named is CAL12T. In words: In vitro proliferation assay, NSCLC cell line CAL12T. It is filed as cell-based. Particulars: Homo sapiens, CAL-12T, 72 hours of drug exposure, read-out: 3424 IC50. The procedure: as §1
The test system of series [9] is NCI-H23. As to the kind of experiment: In vitro proliferation assay, NSCLC cell line NCI-H23. Particulars: Homo sapiens, 72 hours of drug exposure, read-out: 3424 IC50. It is filed as cell-based. On the procedure: as §1
For series [10], the system named is LU2505 PDX. As to the kind of experiment: Lung cancer PDX model LU2505 (higher AKR1C3). It is filed as in vivo, mice. The procedure: Anti-tumor activity of 3424 in PDX models was assessed at CrownBio Bioscience (Beijing, China) Inc. using female BALB/c nude mice (6-7 weeks old, Beijing Anikeeper Biotech Co., Ltd, Beijing, China). Tumor fragments (PA1280, GA6201, LU2057 and LU2505) from stock mice inoculated with selected primary human cancer tissues (pancreatic, gastric cancer, and lung) were harvested and used for inoculation into BALB/c nude mice. Each mouse was inoculated subcutaneously for tumor development. Mice were allocated randomly into experimental groups when the average tumor size reached ˜100 mm^3) by using StudyDirector™ Ver 3.1.399.19 (Studylog Systems, Inc., S. San Francisco, CA, USA). Prodrug 3424 was administered IV at the indicated doses with a regimen of Q7D×3. Each group consisted of 5-6 mice. The grouping day was denoted as Day 0. Prodrug 3424 was administrated to the tumor-bearing mice from Day 0 through Days as indicated for each study.

Turning to `C[C@H](OP(=O)(N1CC1)N1CC1)c1ccc([N+](=O)[O-])c(Oc2cccc(C(=O)N(C)C)c2)c1` [Compound 3424, (S)-1-(3-(3-N,N-dimethylaminocarbonyl)phenoxyl-4-mtrophenyl)-1-ethyl-N,N′-bis(ethylene)phosphoramidate], the “2660 Concentration” value in series [1] (3424 concentration 10 μM) stood at 10.71 ± 0.53 µM; in series [1] (3424 concentration 20 μM), 14.77 ± 1.44 µM; in [1] (3424 concentration 30 μM), 33.96 ± 1.90 µM; in series [1] (3424 concentration 40 μM) it was 34.30 ± 6.63 µM; in [1] (3424 concentration 50 μM), 34.59 ± 7.44 µM. Also, the Kcat in series [2] turned out to be 0.0107 ± 0.00017 s⁻¹. Also, the Michaelis-Menten constant (Km) in series [2] (read-out: Km) worked out at 12.6 ± 0.28 µM. The IC50 in series [3] is 113 nM; in series [4], 696 nM; in series [5], over 1000 nM; in [6], over 1000 nM; in series [7], 4.5 nM; in series [8], 29.1 nM. For the same compound, the IC50 in series [9] was over 1000 nM. In addition, the figures for the TGI in [10] (3424 1.25 mg/kg i.v. Q7D × 3), in [10] (3424 2.5 mg/kg i.v. Q7D × 3) and in series [10] (3424 5 mg/kg i.v. Q7D × 3) were 105.0%, 105.2% and 105.2%, respectively. Further, in [10] (LU2505, all tested doses), the “tolerability / body weight loss” value was “no body weight loss”.
